Data on three compounds can be found in patent US11739053B2, “P62-ZZ chemical inhibitor” (ID4PHARMA, LLC, priority 2011, dated 2023).

Assay [1] deals with GFP-labeled human myeloma MM1.S cells. The assay is described as follows: GFP-labeled MM1.S myeloma cell growth with/without stromal cells, fluorescence microscopy. It counts as cell-based. As to conditions: 10 μM, 72 hours, FIG. 3. As to the method:
FIG. 3 is a graph depicting MM cell growth inhibition. Data is shown as the mean±SD (n=5). *: P<0.01 compared to no-inhibitor cultures without stromal cells. **: P<0.01 compared to no-treatment co-cultured with stromal cells.
Compound 3 was tested for its capacity to block MM-stimulated signaling in marrow stromal cells, thereby resulting in less bone destruction and MM growth. The effects of the compound 3 on GFP-labeled MM1.S myeloma cell growth with/without stromal cells, IL-6 and VCAM-1 expression on stromal cells induced by TNF-α and OCL formation, and TNF-α induced PKCζ phosphorylation, the specific kinase enzyme activated p62-ZZ, were examined. GFP-labeled MM1.S myeloma cells or normal human CFU-GM, a source of OCL precursors, were then co-cultured with human stromal cells with the p62-ZZ inhibitor. The 10 μM of inhibitor compound 3 blocked MM cell growth by 90% compared to vehicle (0.1% DMSO). […] VCAM-1 expression and IL-6 production induced by TNF-α on stromal cells was blocked by 30% and 90% respectively compared to vehicle levels. Furthermore, TNF-α induced PKC, phosphorylation blocked was in stromal cells and MM1.S when pre-treated with this p62-ZZ inhibitory compound for 3 hours.
Primary human bone marrow stromal cells were maintained in 10% FCS-IMDM. Stromal cells (1.5×10^3 cells/well) were cultured one day prior to the start of co-culture. Green fluorescent protein (GFP)-labeled human myeloma MM1.S cells (7.5×10^3 cells/well) were then cultured with/without stromal cells in the presence or absence of the p62-ZZ inhibitors (#1-6) for 72 hours. MM cell growth was determined by fluorescence microscopy.

The test system of the next assay is IL-6 production. Put plainly: TNF-α induced IL-6 production by marrow stromal cells, ELISA. It counts as cell-based, human. As to conditions: normal human stromal cells, FIG. 5B. The protocol:
FIG. 5A-B: 5A. VCAM-1 expression using Western blot analysis. Normal human stromal cells were cultured with/without TNF and p62-ZZ inhibitors (#1-6) for 48 hours. The cell lysates were collected and VCAM-1 expression was measured using an anti-VCAM-1 antibody (Santa Cruz). FIG. 5B. IL-6 production by human and mouse marrow stromal cells by ELISA. Normal human and mouse marrow stromal cells were cultured with/without TNFα and p62-ZZ inhibitors (#1-6) for 48 hours. The cell culture media were collected and IL-6 production measured using an IL-6 ELISA kit (R &D). Data are shown as the means (n=2).
Normal human or mouse marrow stromal cells were maintained in 10% FBS-IMDM and treated with p62-ZZ inhibitors (#1-6) for 3 hours. Then TNFα or vehicle was added for 48 hours. Cell lysates were collected and VCAM-1 expression measured by Western blot using an anti-VCAM-1 antibody (Santa Cruz). The culture media were collected and IL-6 production was measured using an IL-6 ELISA kit (R&D Company).
For orientation: ELISA stands for enzyme-linked immunosorbent assay.

Molecules are shown by their SMILES.

Take `OC[C@@H](O)[C@@H](O)[C@H](O)[C@H](O)C(/C=N/Nc1ccccc1)=N/Nc1ccccc1` [Compound 2]: the “MM cell growth (result in words)” value in assay [1] is reported as “directly blocked MM cell growth”. Moreover, in the assay on IL-6 production, the “IL-6 production by TNF-α stimulated normal human stromal cells (result in words)” value is reported as “blocked IL-6 production”.
For the compound `O=C(O)CNC(=O)c1ccc(NCc2oc(CO)c(CNc3ccc(C(=O)NCC(=O)O)cc3)c(=O)c2O)cc1` [Compound 4], the “MM cell growth (result in words)” value in assay [1] was “directly blocked MM cell growth”.
Turning to `CCOc1ccccc1/C=N/Nc1ccc(S(=O)(=O)c2ccc(N/N=C/c3ccccc3OCC)cc2)cc1` [Compound 5], the “IL-6 production by TNF-α stimulated normal human stromal cells (result in words)” value with IL-6 production is “blocked IL-6 production”.
